Reference: patent US7385026B1, “Modified ghrelin polypeptides” (priority 1999, dated 2008)
Square brackets hold non-standard residues; d marks the D form. Peptide text beside a SMILES is read from it. * marks the point of attachment. Octanoyl = CCCCCCCC(=O)*; Aib = CC(C)(N)C(=O)O; Ava = NCCCCC(=O)O; Octyl = CCCCCCCC*

Target: T1, rat GHS-receptor (GHR-R) (Rattus norvegicus, UniProt O08725)
T1 construct: A full-length cDNA for rat GHR-R was obtained by RT-PCR; expressed in transfected cells
Test: Ca-releasing activity (increase in intracellular calcium) in CHO-GHSR62 cells, FLIPR
Type: cell-based
Conditions: not given
Text: To assay an increase in the intracellular calcium ion concentration (Ca-releasing activity) occurring upon binding of a GH secretagogue (GHS) to GHS-receptor (GHR-R), a cell strain expressing rat GHR-R was created in the following manner. A full-length cDNA for rat GHR-R was obtained by RT-PCR (reverse transcriptase-polymerase chain reaction) where a cDNA derived from rat brain was used as template. From the nucleotide sequence of known rat GHR-R [K. K. Mckee, et al, Molecular Endocrinology 11, 415-423 (1997)], sense and antisense primers consisting of the following nucleotide sequences were synthesized.
The amplified cDNA was ligated to vector pcDNAIII (Invitrogen) to construct expression vector GHSR-pcDNAIII. CHO cells were transformed via the expression vector, and the transformed cells stably expressing GHR-R were selected in a medium containing 1 μg/ml G418. […] A change in the intracellular calcium ion concentration (Ca-releasing activity) was measured by an FLIPR system (Molecular Device). Before this measurement, 4×10^4 CHO-GHSR62 cells were put to a 96-well microplate with black wall (Corning Co., Ltd) and cultured for 12 to 15 hours. Then, the cells were incubated with 4 μM fluorescent Fluo4 (Molecular Probe Co., Ltd) for 1 hour and washed four times with Hank's BSS (Hank's Balanced Salt Solution) containing 20 mM Hepes ([N-2-hydroxyethyl]-piperazine-N-[2-ethanesulfonic acid]) and 2.5 mM probenecid, and the Ca-releasing activity was assayed by adding a sample and measuring a change in the fluorescence.
Peptide fragments obtained by partially digested the rat- and human-derived ghrelins by various proteases, or chemically synthesized peptides, were examined for their Ca releasing activity in order to determine a core amino acid sequence and the optimum chain length of a modifying fatty acid necessary for Ca-releasing activity.
The Ca-increasing activities of the ghrelin derivative peptide-type compounds synthesized in Example 10 and the natural ghrelin peptide were measured in the same manner as in Example 1.
In this examination, the intracellular Ca-releasing activity in CHO cells expressing rat GSH receptor was used as the indicator.

T1 sequence (O08725 whole entry): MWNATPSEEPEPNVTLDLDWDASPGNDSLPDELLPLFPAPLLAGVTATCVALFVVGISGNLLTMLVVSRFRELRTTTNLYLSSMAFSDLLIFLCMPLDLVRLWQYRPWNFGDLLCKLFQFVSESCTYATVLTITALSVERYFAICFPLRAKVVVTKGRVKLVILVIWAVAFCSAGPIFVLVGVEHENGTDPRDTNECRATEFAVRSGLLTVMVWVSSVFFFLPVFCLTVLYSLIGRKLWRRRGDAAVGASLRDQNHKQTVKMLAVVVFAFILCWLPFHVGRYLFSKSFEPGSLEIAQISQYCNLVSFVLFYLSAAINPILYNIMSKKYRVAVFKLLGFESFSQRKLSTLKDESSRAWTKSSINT

Row | Ca-releasing activity of ghrelin (1-4) after amidation relative to before amidation | SMILES
1 | about 3 times | CCCCCCCC(=O)OC[C@H](NC(=O)[C@H](CO)NC(=O)CN)C(=O)N[C@@H](Cc1ccccc1)C(N)=O [Compound 33-2, Ghrelin (1-4)-amide] (H-GSS(Octanoyl)F-NH2)

Same assay, conditions: CHO-GHSR62 cells (CHO cells expressing rat GHS receptor), FLIPR; read-out: Ca-releasing activity EC50

Row | EC50 [nM] | SMILES
2 | 280 | CCCC(=O)OC[C@H](NC(=O)[C@H](CO)NC(=O)CN)C(=O)N[C@@H](Cc1ccccc1)C(=O)N[C@@H](CC(C)C)C(=O)N[C@@H](CO)C(=O)N1CCC[C@H]1C(=O)N[C@@H](CCC(=O)O)C(=O)N[C@@H](Cc1c[nH]cn1)C(=O)N[C@@H](CCC(N)=O)C(=O)N[C@@H](CCCCN)C(=O)N[C@@H](C)C(=O)N[C@@H](CCC(N)=O)C(=O)N[C@@H](CCC(N)=O)C(=O)N[C@@H](CCCNC(=N)N)C(=O)N[C@@H](CCCCN)C(=O)N[C@@H](CCC(=O)O)C(=O)N[C@@H](CO)C(=O)N[C@@H](CCCCN)C(=O)N[C@@H](CCCCN)C(=O)N1CCC[C@H]1C(=O)N1CCC[C@H]1C(=O)N[C@@H](C)C(=O)N[C@@H](CCCCN)C(=O)N[C@@H](CC(C)C)C(=O)N[C@@H](CCC(N)=O)C(=O)N1CCC[C@H]1C(=O)N[C@@H](CCCNC(=N)N)C(=O)O [Compound 10, [Ser^3(Butyryl)]-rGhrelin]
3 | 2.6 | CCCCCCCC(=O)OC[C@H](NC(=O)[C@H](CO)NC(=O)CN)C(=O)N[C@@H](Cc1ccccc1)C(=O)N[C@@H](CC(C)C)C(=O)N[C@@H](CO)C(=O)N1CCC[C@H]1C(N)=O [Compound 29, Ghrelin (1-7)-amide]
4 | 42 | CCCCCCCC(=O)OC[C@H](NC(=O)[C@H](CC(C)C)NC(=O)CN)C(=O)N[C@@H](Cc1ccccc1)C(=O)N[C@@H](CC(C)C)C(=O)N[C@@H](CO)C(=O)N1CCC[C@H]1C(N)=O [Compound 44, [Leu^2]-Ghrelin (1-7)-amide] (H-GLS(Octanoyl)FLSP-NH2)
5 | 160 | CCCCCCCC(=O)OC[C@H](NC(=O)[C@H](CO)NC(=O)CN)C(=O)N[C@@H](Cc1ccccc1)C(N)=O [Compound 33-2, Ghrelin (1-4)-amide] (H-GSS(Octanoyl)F-NH2)
6 | 3000 | CCCCCCCCSC[C@H](NC(=O)[C@H](CO)NC(=O)CN)C(=O)N[C@H](Cc1ccccc1)C(=O)N[C@@H](CC(C)C)C(=O)N[C@@H](CO)C(=O)N1CCC[C@H]1C(N)=O [Compound 49, [Cys^3(Octyl), ^DPhe^4]Ghrelin (1-7)-amide] (H-GSC(Octyl)[dF]LSP-NH2)
7 | 480 | CCCCCCCC(=O)OC[C@H](NC(=O)[C@H](CO)NC(=O)CN)C(=O)N[C@@H](Cc1ccccc1)C(=O)O [Compound 33-1, Ghrelin (1-4)] (H-GSS(Octanoyl)F-OH)
8 | 3.4 | CCCCCCCC(=O)OC[C@H](NC(=O)CCCCN)C(=O)N[C@@H](Cc1ccccc1)C(=O)N[C@@H](CC(C)C)C(=O)N[C@@H](CO)C(=O)N1CCC[C@H]1C(N)=O [Compound 40, [N-Aminopentanoyl]-Ghrelin (3-7)-amide] (H-[Ava]S(Octanoyl)FLSP-NH2)
9 | 3.5 | CCCCCCCCOC[C@H](NC(=O)CCCCN)C(=O)N[C@@H](Cc1ccccc1)C(=O)N[C@@H](CC(C)C)C(=O)NCCN [Compound 85, [N-Aminopentanoyl, Ser^3(Octyl)]-Ghrelin (3-5), aminoethylamide]
10 | 24 | CCCCCCCC(=O)OC[C@H](NC(=O)[C@H](CCCCN)NC(=O)CN)C(=O)N[C@@H](Cc1ccccc1)C(=O)N[C@@H](CC(C)C)C(=O)N[C@@H](CO)C(=O)N1CCC[C@H]1C(N)=O [Compound 46, [Lys^2]-Ghrelin (1-7)-amide] (H-GKS(Octanoyl)FLSP-NH2)
11 | 4.8 | CCCCCCCC(=O)OC[C@H](NC(=O)[C@H](CO)NC(=O)CN)C(=O)N[C@@H](Cc1ccccc1)C(=O)N[C@@H](CC(C)C)C(=O)N[C@@H](CO)C(N)=O [Compound 30, Ghrelin (1-6)-amide] (H-GSS(Octanoyl)FLS-NH2)
12 | > 10000 | CCCCCCCC(=O)NCC(=O)N[C@@H](CO)C(=O)N[C@@H](CO)C(=O)N[C@@H](Cc1ccccc1)C(=O)N[C@@H](CC(C)C)C(=O)N[C@@H](CO)C(=O)N1CCC[C@H]1C(=O)N[C@@H](CCC(=O)O)C(=O)N[C@@H](Cc1c[nH]cn1)C(N)=O [Compound 6, [N-Octanoyl, Ser^3]-Ghrelin (1-9)-amide] (Octanoyl-GSSFLSPEH-NH2)
13 | 34 | CCCCCCCCOC[C@H](NC(=O)[C@H](Cc1c[nH]cn1)NC(=O)C(C)(C)N)C(=O)N[C@@H](Cc1ccccc1)C(=O)N[C@@H](CCCCN)C(N)=O [Compound 78, [Aib^1, His^2, Ser^3(Octyl), Lys^5]-Ghrelin (1-5)-amide] (H-[Aib]HS(Octyl)FK-NH2)
14 | 38 | CCCCCCCC(=O)OC[C@H](NC(=O)[C@H](CO)NC(=O)CN)C(=O)N[C@@H](Cc1ccccc1)C(=O)N[C@@H](CC(C)C)C(=O)N[C@@H](CO)C(=O)N1CCC[C@H]1C(=O)N[C@@H](CCC(=O)O)C(=O)N[C@@H](Cc1c[nH]cn1)C(=O)O [Compound 26, Ghrelin (1-9)] (H-GSS(Octanoyl)FLSPEH-OH)
15 | 2.6 | CCCCCCCC(=O)NC[C@H](NC(=O)[C@H](CO)NC(=O)CN)C(=O)N[C@@H](Cc1ccccc1)C(=O)N[C@@H](CC(C)C)C(=O)N[C@@H](CO)C(=O)N1CCC[C@H]1C(=O)N[C@@H](CCC(=O)O)C(=O)N[C@@H](Cc1cnc[nH]1)C(=O)N[C@@H](CCC(N)=O)C(=O)N[C@@H](CCCNC(=N)N)C(=O)N[C@H](C(=O)N[C@@H](CCC(N)=O)C(=O)N[C@@H](CCC(N)=O)C(=O)N[C@@H](CCCNC(=N)N)C(=O)N[C@@H](CCCCN)C(=O)N[C@@H](CCC(=O)O)C(=O)N[C@@H](CO)C(=O)N[C@@H](CCCCN)C(=O)N[C@@H](CCCCN)C(=O)N1CCC[C@H]1C(=O)N1CCC[C@H]1C(=O)N[C@@H](C)C(=O)N[C@@H](CCCCN)C(=O)N[C@@H](CC(C)C)C(=O)N[C@@H](CCC(N)=O)C(=O)N1CCC[C@H]1C(=O)N[C@@H](CCCNC(=N)N)C(=O)O)C(C)C [Compound 56, [Dap^3(Octanoyl)]-hGhrelin]
16 | 1600 | CC(C)C[C@H](NC(=O)[C@H](CCCCN)NC(=O)[C@H](C)NC(=O)[C@@H]1CCCN1C(=O)[C@@H]1CCCN1C(=O)[C@H](CCCCN)NC(=O)[C@H](CCCCN)NC(=O)[C@H](CO)NC(=O)[C@H](CCC(=O)O)NC(=O)[C@H](CCCCN)NC(=O)[C@H](CCCNC(=N)N)NC(=O)[C@H](CCC(N)=O)NC(=O)[C@H](CCC(N)=O)NC(=O)[C@@H](NC(=O)[C@H](CCCNC(=N)N)NC(=O)[C@H](CCC(N)=O)NC(=O)[C@H](Cc1c[nH]cn1)NC(=O)[C@H](CCC(=O)O)NC(=O)[C@@H]1CCCN1C(=O)[C@H](CO)NC(=O)[C@H](CC(C)C)NC(=O)[C@H](Cc1ccccc1)NC(=O)[C@@H](NC(=O)[C@H](CO)NC(=O)CN)C(C)C)C(C)C)C(=O)N[C@@H](CCC(N)=O)C(=O)N1CCC[C@H]1C(=O)N[C@@H](CCCNC(=N)N)C(=O)O [Compound 74, [Val^3]-hGhrelin]

Same assay, conditions: Table 3, Example 9: protease fragments or synthetic peptides; CHO-GHSR62 cells; read-out: Ca-releasing activity (EC50)

Row | EC50 [nM] | SMILES
17 | 19 | CCCCCCCC(=O)OC[C@H](NC(=O)[C@H](CO)NC(=O)CN)C(=O)N[C@@H](Cc1ccccc1)C(=O)N[C@@H](CC(C)C)C(=O)N[C@@H](CO)C(=O)N1CCC[C@H]1C(=O)N[C@@H](CCC(=O)O)C(=O)N[C@@H](Cc1c[nH]cn1)C(=O)N[C@@H](CCC(N)=O)C(=O)O [Compound 25, Ghrelin (1-10)]
18 | 15 | CCCCCCCC(=O)OC[C@H](NC(=O)[C@H](CO)NC(=O)CN)C(=O)N[C@@H](Cc1ccccc1)C(=O)N[C@@H](CC(C)C)C(=O)N[C@@H](CO)C(=O)N1CCC[C@H]1C(=O)N[C@@H](CCC(=O)O)C(=O)N[C@@H](Cc1c[nH]cn1)C(=O)N[C@@H](CCC(N)=O)C(=O)N[C@@H](CCCCN)C(=O)O [Compound 24, rGbrelin (1-11)]
19 | 100 | CCCCCCCC(=O)OC[C@H](NC(=O)[C@H](CO)NC(=O)CN)C(=O)N[C@@H](Cc1ccccc1)C(=O)N[C@@H](CC(C)C)C(=O)N[C@@H](CO)C(=O)N1CCC[C@H]1C(=O)N[C@@H](CCC(=O)O)C(=O)O [Compound 27, Ghrelin (1-8)]
20 | 15 | CCCCCCCC(=O)OC[C@H](NC(=O)[C@H](CO)NC(=O)CN)C(=O)N[C@@H](Cc1ccccc1)C(=O)N[C@@H](CC(C)C)C(=O)N[C@@H](CO)C(=O)N1CCC[C@H]1C(=O)N[C@@H](CCC(=O)O)C(=O)N[C@@H](Cc1c[nH]cn1)C(=O)N[C@@H](CCC(N)=O)C(=O)N[C@@H](CCCNC(=N)N)C(=O)O [Compound 23, hGhrelin (1-11)]
